Experimental data: patent US20070253896A1, “7,9-Dihydro-Purin-8-One and Related Analogs as HSP90-Inhibitors” (CONFORMA THERAPEUTICS CORPORATION, priority 2006, published 2007)

Columns and labels:
[1] = test system: MCF7 breast carcinoma cells; assay: MTS Assay; assay type: cell-based; conditions: Homo sapiens, concentration giving 50% reduction in viable cell number
Method: MTS assays measure the cytotoxicity of geldanamycin derivatives. MTS (3-(4,5-dimethylthiazol-2-yl)-5-(3-carboxymethoxyphenyl)-2-(4-sulfophenyl)-2H-tetrazolium) is a tetrazolium dye that is converted to a formazan product by dehydrogenase enzymes of metabolically active cells (Corey, A. et al. “Use of an aqueous soluble tetrazolium/formazan assay for cell growth assays in culture,” Cancer Commun. 1991, 3, 207-212). Cells were seeded in 96 well plates at 2000 cells/well and allowed to adhere overnight in Dulbecco's modified Eagle's medium supplemented with 10% fetal bovine serum. The final culture volume was 100 μl. Viable cell number was determined by using the Celltiter 96 AQueous Non-radioactive Cell Proliferation Assay (Promega, Madison Wis.). The MTS/PMS (phenazine methosulfate) solution was mixed at a ratio of 20:1, and 20 μL was added per well to 100 μl of culture medium. After 2-4 hours, the formation of the formazan product was measured at 490 nm absorbance using a multiwell plate spectrophotometer. Background was determined by measuring the Abs 490 nm of cell culture medium and MTS-PMS in the absence of cells and was subtracted from all values. Percent viable cells was calculated as follows: % viable cells=(Abs at 490 nm treated cells/Abs at 490 nm untreated cells)×100
The effect of selected compounds of the invention on MCF7 breast carcinoma cells according to the MTS assay is summarized in Table 2. IC50 was defined as the concentration of the compound which gave rise to 50% reduction in viable cell number.

[2] = test system: HER2/Neu protein; assay: HER2 Degradation Assay; assay type: cell-based; conditions: Homo sapiens; MCF7 breast carcinoma cells, 16 h incubation, flow cytometry; concentration at which there was 50% degradation of the HER2/Neu protein
Method: MCF7 breast carcinoma cells (ATCC) were grown in Dulbecco's modified Eagle's medium (DMEM) containing 10% fetal bovine serum (FBS) and 10 mM HEPES, and plated in 24 well plates (50% confluent). Twenty-four hrs later (cells are 65-70% confluent), test compounds were added and incubated overnight for 16 h. […] The wells were washed with 1 mL phosphate buffered saline (PBS), and 200 μL trypsin was added to each well. After trypsinization was complete, 50 μL of FBS was added to each well. Then 200 μL cells was transferred to 96 well plates. The cells were pipetted up and down to obtain a single cell suspension. The plates were centrifuged at 2,500 rpm for 1 min using a Sorvall Legend RT™0 tabletop centrifuge (Kendro Laboratory Products, Asheville, N.C.). The cells were then washed once in PBS containing 0.2% BSA and 0.2% sodium azide (BA buffer). Phycoerythrin (PE) conjugated anti HER2/Neu antibody (Becton Dickinson, #340552), or PE conjugated anti-keyhole limpet hemocyanin [KLH] (Becton Dickinson; #340761) control antibody was added at a dilution of 1:20 and 1:40 respectively (final concentration was 1 μg/mL) and the cells were pipetted up and down to form a single cell suspension, and incubated for 15 mins. The cells were washed twice with 200 μL BA buffer, and resuspended in 200 μL BA buffer, and transferred to FACSCAN tubes with an additional 250 µL BA buffer. Samples were analyzed using a FACS Calibur™ flow cytometer (Becton Dickinson, San Jose, Calif.) equipped with Argon-ion laser that emits 15 mW of 488 nm light for excitation of the PE fluorochrome. 10,000 events were collected per sample. A fluorescence histogram was generated and the mean fluorescence intensity (MFI) of each sample was determined using Cellquest software. The background was defined as the MFI generated from cells incubated with control IgG-PE, and was subtracted from each sample stained with the HER2/Neu antibody. Cells incubated with DMSO were used as untreated controls since the compounds were resuspended in DMSO. Percent degradation of HER2 was calculated as follows: % HER2 degraded=[(MFI untreated cells−MF1 treated cells)/MFI untreated cell]×100
IC50 is defined as the concentration at which there was 50% degradation of the HER2/Neu protein.

Compound | IC50 [1] | IC50 [2]
Cc1cnc(Cn2c(=O)[nH]c3c(Cl)nc(N)nc32)c(C)c1I [Example 6, 2-amino-6-chloro-9-((4-iodo-3,5-dimethylpyridin-2-yl)methyl)-7H-purin-8(9H)-one] | 0.3 µM | 0.07 µM
COc1c(C)cnc(Cn2c(=O)n(CCC=C(C)C)c3c(Cl)nc(N)nc32)c1C [Example 20, 2-Amino-6-chloro-9-(4-methoxy-3,5-dimethyl-pyridin-2-ylmethyl)-7-(4-methyl-pent-3-enyl)-7,9-dihydro-purin-8-one] | > 1 µM | 0.14 µM
C=CCCCn1c(=O)n(Cc2ncc(C)c(OC)c2C)c2nc(N)nc(Cl)c21 [Example 35, 2-Amino-6-chloro-9-(4-methoxy-3,5-dimethyl-pyridin-2-ylmethyl)-7-pent-4-enyl-7,9-dihydro-purin-8-one] | 1 µM | 0.16 µM
COc1c(C)cnc(Cn2c(=O)n(CCC(F)=C(F)F)c3c(Cl)nc(N)nc32)c1C [Example 71, 2-Amino-6-chloro-9-(4-methoxy-3,5-dimethyl-pyridin-2-ylmethyl)-7-(3,4,4-trifluoro-but-3-enyl)-7,9-dihydro-purin-8-one] | > 1 µM | 0.16 µM
COC(=O)c1ccc(Cn2c(=O)n(Cc3ncc(C)c(OC)c3C)c3nc(N)nc(Cl)c32)cc1 [Example 80, 4-[2-Amino-6-chloro-9-(4-methoxy-3,5-dimethyl-pyridin-2-ylmethyl)-8-oxo-8,9-dihydro-purin-7-ylmethyl]-benzoic acid methyl ester] | > 1 µM | 0.16 µM
COc1c(C)cnc(Cn2c(=O)n(Cc3ccccn3)c3c(Cl)nc(N)nc32)c1C [Example 82, 2-Amino-6-chloro-9-(4-methoxy-3,5-dimethyl-pyridin-2-ylmethyl)-7-pyridin-2-ylmethyl-7,9-dihydro-purin-8-one] | 1 µM | 0.17 µM
COc1c(C)cnc(Cn2c(=O)n(CCn3cccc3)c3c(Cl)nc(N)nc32)c1C [Example 89, 2-Amino-6-chloro-9-(4-methoxy-3,5-dimethyl-pyridin-2-ylmethyl)-7-(2-pyrrol-1-yl-ethyl)-7,9-dihydro-purin-8-one] | 1 µM | 0.12 µM
Cc1cnc(Cn2c(=O)n(CCn3cccc3)c3c(Cl)nc(N)nc32)c(C)c1I [Example 96, 7-(2-(1H-pyrrol-1-yl)ethyl)-2-amino-6-chloro-9-((4-iodo-3,5-dimethylpyridin-2-yl)methyl)-7H-purin-8(9H)-one] | 0.3 µM | 0.042 µM
Cc1cnc(Cn2c(=O)n(CCN(C(C)C)C(C)C)c3c(Cl)nc(N)nc32)c(C)c1I [Example 98, 2-amino-6-chloro-7-(2-(diisopropylamino)ethyl)-9-((4-iodo-3,5-dimethylpyridin-2-yl)methyl)-7H-purin-8(9H)-one] | 0.6 µM | 0.03 µM
Cc1cnc(Cn2c(=O)n(Cc3ccccn3)c3c(Cl)nc(N)nc32)c(C)c1I [Example 99, 2-amino-6-chloro-9-((4-iodo-3,5-dimethylpyridin-2-yl)methyl)-7-(pyridin-2-ylmethyl)-7H-purin-8(9H)-one] | > 1 µM | 0.12 µM
CC(=O)n1c(=O)n(Cc2ncc(C)c(I)c2C)c2nc(N)nc(Cl)c21 [Example 105, 7-acetyl-2-amino-6-chloro-9-((4-iodo-3,5-dimethylpyridin-2-yl)methyl)-7H-purin-8(9H)-one] | 0.3 µM | 0.09 µM
CCCN(CCC)CCn1c(=O)n(Cc2ncc(C)c(I)c2C)c2nc(N)nc(Cl)c21 [Example 107, 2-amino-6-chloro-7-(2-(dipropylamino)ethyl)-9-((4-iodo-3,5-dimethylpyridin-2-yl)methyl)-7H-purin-8(9H)-one] | > 1 µM | 0.13 µM
Cc1cnc(Cn2c(=O)n(CCN(C)C(C)C)c3c(Cl)nc(N)nc32)c(C)c1I [Example 108, 2-amino-6-chloro-9-((4-iodo-3,5-dimethylpyridin-2-yl)methyl)-7-(2-(isopropyl(methyl)amino)ethyl)-7H-purin-8(9H)-one] | 0.7 µM | 0.14 µM
